{
  "source": "patent US20100285959A1",
  "about": "“HERBICIDAL MIXTURES” (priority 2006, published 2010)",
  "key": {"[1]": {"tested_on": "redroot pigweed (AMARE)", "assay": "Test 25 field trial, postemergence, growth as percent of control", "format": "in vivo, Amaranthus retroflexus", "text": "Corn seeds (hybrid ‘Pioneer 31G96 RR’) were planted in mid spring season, 3.8 cm deep in a clay loam soil having 2% organic matter and a pH of 6.6. Plots were 6.1 m long by 3.0 m wide with rows spaced 76 cm apart. Seeds were spaced 15 cm apart within the rows. The field was managed using conventional tillage practices. […] Giant ragweed and Pennsylvania smartweed could only be evaluated 14 days after application. […] Results are the means of the three replicates. This growth inhibition data was converted to results in the form of “plant growth as a percent of control plant growth” using the calculation “100 minus growth inhibition”.\nWhen this form of Colby's Equation is used, if the observed effects on weeds are less than the expected values, the mixture is synergistic."}, "[2]": {"tested_on": "common lambsquarters (CHEAL)", "assay": "Test 26 field trial, postemergence", "format": "in vivo, Chenopodium album", "set-up": "scale not given here", "text": "(§1) Corn seeds (hybrid ‘Pioneer 31G96’) were planted in mid spring season, 3.8 cm deep in a silt loam soil having 2% organic matter and a pH of 6.6. Plots were 6.1 m long by 3.0 m wide with rows spaced 76 cm apart. Seeds were spaced 15 cm apart within the rows. The field was managed using conventional tillage practices. […] All treatments also included a surfactant. […] Some of the weed species could not be evaluated at every timing. […] Results are the means of the three replicates."}, "[3]": {"tested_on": "ivyleaf morningglory (IPOHE)", "assay": "Test 26 field trial, postemergence", "format": "in vivo, Ipomoea hederacea", "set-up": "scale not given here", "text": "as §1"}, "[4]": {"tested_on": "kochia (KCHSC)", "assay": "Test 27 field trial, postemergence", "format": "in vivo, Kochia scoparia", "set-up": "scale not given here", "text": "Wheat seeds (cv. ‘Custer’) were planted in late fall season in a clay loam soil. Plots were 9 m long by 1.8 m wide. The field was managed using conventional tillage practices. […] All treatments also included a surfactant. […] Results are the means of the three replicates."}, "[5]": {"tested_on": "dry-seeded rice (ORYSA)", "assay": "Test 28 greenhouse, postemergence", "format": "in vivo, Oryza sativa", "details": "26 DAA", "procedure": "(§2) A greenhouse test was conducted to evaluate the effects on the plant species corn (ZEAMD, Zea mays ssp. indentata), sorghum (SORVU, Sorghum vulgare L.), dry-seeded rice (ORYSA, Oryza sativa L.), wheat (TRZAW, Triticum aestivum L.), ivyleaf morningglory (IPOHE, Ipomoea hederacea (L.) JACQ.), and barnyardgrass (ECHCG, Echinochloa crus-galli (L.) P. BEAUV.), of mixtures of Compound 2 with isoxadifen-ethyl. Corn, sorghum, rice, wheat, ivyleaf morningglory and barnyardgrass seeds were planted in RediEarth, a commercial potting medium. […] Corn plants were treated postemergence at the V2 growth stage, and sorghum, rice, wheat, ivyleaf morningglory, and barnyardgrass plants were treated postemergence at the 3-leaf stage. […] Each treatment was replicated three times. […] Plants were watered as needed."}, "[6]": {"tested_on": "wheat (TRZAW)", "assay": "Test 28 greenhouse, post- and preemergence", "format": "in vivo, Triticum aestivum", "details": "26 DAA", "procedure": "as §2"}},
  "data": [
    {"smiles": "COC(=O)c1nc(C2CC2)nc(N)c1Cl", "note": "[Compound 2, methyl 6-amino-5-chloro-2-cyclopropyl-4-pyrimidinecarboxylate]", "values": [
      {"measurement": "AMARE Obs (percent of control)", "setting": "[1]; Cpd 2 15 g a.i./ha, 14 DAA", "result": 47, "unit": "%"},
      {"measurement": "AMARE Obs (percent of control)", "setting": "[1]; Cpd 2 15 g a.i./ha, 28 DAA", "result": 38, "unit": "%"},
      {"measurement": "AMARE Obs (percent of control)", "setting": "[1]; Cpd 2 15 g a.i./ha, 56 DAA", "result": 0, "unit": "%"},
      {"measurement": "AMARE Obs (percent of control)", "setting": "[1]; Cpd 2 30 g a.i./ha, 14 DAA", "result": 35, "unit": "%"},
      {"measurement": "AMARE Obs (percent of control)", "setting": "[1]; Cpd 2 30 g a.i./ha, 28 DAA", "result": 22, "unit": "%"},
      {"measurement": "AMARE Obs (percent of control)", "setting": "[1]; Cpd 2 30 g a.i./ha, 56 DAA", "result": 0, "unit": "%"},
      {"measurement": "AMARE Obs (percent of control)", "setting": "[1]; Cpd 2 45 g a.i./ha, 14 DAA", "result": 28, "unit": "%"},
      {"measurement": "AMARE Obs (percent of control)", "setting": "[1]; Cpd 2 45 g a.i./ha, 28 DAA", "result": 20, "unit": "%"},
      {"measurement": "AMARE Obs (percent of control)", "setting": "[1]; Cpd 2 45 g a.i./ha, 56 DAA", "result": 28, "unit": "%"},
      {"measurement": "CHEAL Obs", "setting": "[2]; 14 DAA, 30 g a.i./ha", "result": 88},
      {"measurement": "CHEAL Obs", "setting": "[2]; 14 DAA, 45 g a.i./ha", "result": 63},
      {"measurement": "CHEAL Obs", "setting": "[2]; 14 DAA, 60 g a.i./ha", "result": 100},
      {"measurement": "CHEAL Obs", "setting": "[2]; 28 DAA, 30 g a.i./ha", "result": 100},
      {"measurement": "CHEAL Obs", "setting": "[2]; 28 DAA, 45 g a.i./ha", "result": 100},
      {"measurement": "CHEAL Obs", "setting": "[2]; 28 DAA, 60 g a.i./ha", "result": 100},
      {"measurement": "CHEAL Obs", "setting": "[2]; 56 DAA, 30 g a.i./ha", "result": 100},
      {"measurement": "CHEAL Obs", "setting": "[2]; 56 DAA, 45 g a.i./ha", "result": 100},
      {"measurement": "CHEAL Obs", "setting": "[2]; 56 DAA, 60 g a.i./ha", "result": 100},
      {"measurement": "IPOHE Obs", "setting": "[3]; 14 DAA, 30 g a.i./ha", "result": 90},
      {"measurement": "IPOHE Obs", "setting": "[3]; 14 DAA, 45 g a.i./ha", "result": 67},
      {"measurement": "IPOHE Obs", "setting": "[3]; 14 DAA, 60 g a.i./ha", "result": 98},
      {"measurement": "IPOHE Obs", "setting": "[3]; 28 DAA, 30 g a.i./ha", "result": 95},
      {"measurement": "IPOHE Obs", "setting": "[3]; 28 DAA, 45 g a.i./ha", "result": 99},
      {"measurement": "IPOHE Obs", "setting": "[3]; 28 DAA, 60 g a.i./ha", "result": 98},
      {"measurement": "IPOHE Obs", "setting": "[3]; 56 DAA, 30 g a.i./ha", "result": 88},
      {"measurement": "IPOHE Obs", "setting": "[3]; 56 DAA, 45 g a.i./ha", "result": 96},
      {"measurement": "IPOHE Obs", "setting": "[3]; 56 DAA, 60 g a.i./ha", "result": 98},
      {"measurement": "KCHSC Obs", "setting": "[4]; 16 DAA, 15 g a.i./ha", "result": 30},
      {"measurement": "KCHSC Obs", "setting": "[4]; 16 DAA, 30 g a.i./ha", "result": 65},
      {"measurement": "KCHSC Obs", "setting": "[4]; 16 DAA, 45 g a.i./ha", "result": 78},
      {"measurement": "KCHSC Obs", "setting": "[4]; 28 DAA, 15 g a.i./ha", "result": 43},
      {"measurement": "KCHSC Obs", "setting": "[4]; 28 DAA, 30 g a.i./ha", "result": 79},
      {"measurement": "KCHSC Obs", "setting": "[4]; 28 DAA, 45 g a.i./ha", "result": 94},
      {"measurement": "KCHSC Obs", "setting": "[4]; 49 DAA, 15 g a.i./ha", "result": 32},
      {"measurement": "KCHSC Obs", "setting": "[4]; 49 DAA, 30 g a.i./ha", "result": 73},
      {"measurement": "KCHSC Obs", "setting": "[4]; 49 DAA, 45 g a.i./ha", "result": 96},
      {"measurement": "ORYSA Obs", "setting": "[5]; Cpd 2 32 g a.i./ha", "result": 60},
      {"measurement": "ORYSA Obs", "setting": "[5]; Cpd 2 64 g a.i./ha", "result": 83},
      {"measurement": "TRZAW Obs", "setting": "[6]; postemergence, Cpd 2 32 g a.i./ha", "result": 80, "unit": "%"},
      {"measurement": "TRZAW Obs", "setting": "[6]; postemergence, Cpd 2 64 g a.i./ha", "result": 90, "unit": "%"},
      {"measurement": "TRZAW Obs", "setting": "[6]; preemergence, Cpd 2 32 g a.i./ha", "result": 0, "unit": "%"},
      {"measurement": "TRZAW Obs", "setting": "[6]; preemergence, Cpd 2 64 g a.i./ha", "result": 27, "unit": "%"}
    ]}
  ]
}
